Reference: US8227483B2, “Polymorphs of 6-beta-naltrexol” (Mallinckrodt LLC, priority 2008, dated 2012)

Legend:
chronic dependence model = conditions: cited from earlier work
acute dependence model = conditions: high doses; cited from earlier work
[1] = in vivo; compared with naloxone and naltrexone; cited from earlier work
[2] = solubility in a mixture of alcohol and water; format: physicochemical; conditions: compared with Form IB
[3] = resistance to degradation in air; format: physicochemical; conditions: compared with Form IB
water vapor sorption = format: physicochemical
Experimental: Water Vapor Sorption. Data were collected with a SGA-100 water vapor sorption balance (VTI Corporation, Hialeah, Fla.). A portion of the selected sample was weighed into a platinum sample pan and placed into the instrument. The sample was cycled from low (5%) relative humidity (RH) to high (95%) RH to low humidity (i.e., sorption and desorption events) at a constant temperature of 25° C., in 5% RH intervals. The sample was held at each interval until the equilibrium condition was met (i.e., 0.0005% for 3 min, with a maximum of 600 min).

[4] = relative stability of the crystalline forms; format: physicochemical; conditions: dihydrate form of Form IIIS
Text: Above this humidity, Form IIIS absorbed approximately 1.4%-1.5% water at 95% RH.

[5] = slurry experiments (stability of the crystalline forms); format: physicochemical
Experimental: Slurry Experiments. The stability of the crystalline forms was analyzed using slurry experiments. A portion of the solvent of interest was saturated with 6-beta-naltrexol base or 6-beta-naltrexol hydrochloride in a small vial. Additional 6-beta-naltrexol base or 6-beta-naltrexol hydrochloride was then added to the vial, and the resulting slurry was stirred using a magnetic stir bar.

SMILES: Oc1ccc2c3c1OC1C(O)CC[C@@]4(O)[C@@H](C2)N(CC2CC2)CC[C@]314 (stereo partly drawn) [6-beta-naltrexol, morphinan-3,6,14-triol,17-(cyclopropylmethyl)-4,5-epoxy]
- fold less potent than naloxone in precipitating withdrawal (chronic dependence model; relative to naloxone): ~30 fold
- fold less potent than naltrexone in precipitating withdrawal (chronic dependence model; relative to naltrexone): approximately 77 fold
- withdrawal precipitated (acute dependence model): only minimal withdrawal
- duration of action [1]: longer duration of action than naloxone and naltrexone

SMILES: Oc1ccc2c3c1O[C@H]1[C@H](O)CC[C@@]4(O)[C@@H](C2)N(CC2CC2)CC[C@]314 [Form IIB, 6-beta-naltrexol base]
- solubility [2]: greater solubility in a mixture of alcohol and water than Form IB
- resistance to degradation in air [3]: more resistant to degradation in air than Form IB

SMILES: Cl.Oc1ccc2c3c1O[C@H]1[C@H](O)CC[C@@]4(O)[C@@H](C2)N(CC2CC2)CC[C@]314 [Form IIIS, 6-beta-naltrexol hydrochloride]
- stability to humidity (water vapor sorption; above 15% RH, 25° C.): reasonably stable up to approximately 90% RH
- solid form at the conclusion of the sorption experiment (pXRD) (water vapor sorption; after sorption/desorption cycle 5%-95%-5% RH): still comprised predominately Form IIIS
- water absorbed (water vapor sorption; at 95% RH, 25° C.): 1.4%-1.5%
- hysteresis during desorption (water vapor sorption; desorption, 25° C.): minimal hysteresis
- water lost (water vapor sorption; humidities below 15% RH, 25° C., of its original 8.9% water content): approximately 4.5%
- relative stability among crystalline forms [4]: most stable of all the crystalline forms of 6-beta-naltrexol hydrochloride

SMILES: Cl.Oc1ccc2c3c1O[C@H]1[C@H](O)CC[C@@]4(O)[C@@H](C2)N(CC2CC2)CC[C@]314 [Form IIS, 6-beta-naltrexol hydrochloride]
- time the form was stable in slurry ([5]; isopropyl alcohol slurry): at least 8 days

SMILES: Cl.Oc1ccc2c3c1O[C@H]1[C@H](O)CC[C@@]4(O)[C@@H](C2)N(CC2CC2)CC[C@]314 [Form IVS, 6-beta-naltrexol hydrochloride]
- time the form was stable in slurry ([5]; ethyl alcohol slurry): at least 15 days
